Reference: publication PMC6679423 (International Journal of Molecular Sciences, 2019)

Key:
Assay type in all cases: in vitro ADME
CYP2D6, 3A5, 1A1 and 2C8 = assay: Contributions of other CYPs to N-desmethylvandetanib formation in human livers; conditions: with cytochrome b5
Procedure: The contributions of these enzymes were calculated by relative activity factor because the activities of CYPs in Supersomes™ also need to be considered in addition to the relative contents of CYPs in the livers. […] Of CYPs in human liver, CYP3A4 is the major enzyme present in this human organ (~30% of the CYP hepatic complement), followed by CYP2C9 and 1A2 (~15% and ~13%, respectively), while CYP2C19, 2E1 2A6, 2D6, 2C8 and 3A5 are present in human liver at levels that range from ~2.5% to ~8.5% (see Reference for an overview).

human recombinant CYP2D6 = molecular target: T1, human recombinant CYP2D6 (Homo sapiens, UniProt P10635); assay: Vandetanib oxidation by human recombinant CYP2D6 (Supersomes)
T1 construct: purchased Gentest Corp; host or cells: insect cells (baculovirus)
Procedure: The purity of all chemicals met the standards of American Chemical Society, unless noted otherwise. […] Animals were placed in cages in temperature- and humidity-controlled rooms, acclimatized for five days and maintained at 22 °C with a 12 h light/dark period. Standardized diet and water were provided ad libitum. Rats, mice and rabbits used to prepare microsomal fraction from untreated animals were sacrificed by cervical dislocation, livers snap-frozen in liquid nitrogen and stored at −80 °C until further processing (see below). For controls, livers of the animals were removed immediately after sacrifice, divided into small pieces (~1 g), snap-frozen in liquid nitrogen, and stored at −80 °C until isolation of microsomal fractions. Pooled microsomes were used for all in vitro experiments in the present study and prepared from 10 livers/group for all animal species following established protocols. Microsomal fractions were stored at −80 °C until analysis. Protein concentrations in the microsomal fractions were assessed using the bicinchoninic acid protein assay with bovine serum albumin as a standard. […] Microsomes from livers of twelve human donors were obtained from Gentest Corp. (Woburn, MA, USA) (cat. no. HG43–1, HG103, HG74, HG93, HG24, HG27, HG23, HG32, HK31, HK34, HG03, and HG42). […]

human recombinant CYP2C8 = assay: Vandetanib oxidation by human recombinant CYP2C8 (Supersomes)
Procedure: Vandetanib was from LC Laboratories (Woburn, MA, USA). Ketoconazole, NADPH, methimazol and other chemicals were all purchased from Sigma-Aldrich (St. Louis, MO, USA). The purity of all chemicals met the standards of American Chemical Society, unless noted otherwise. All animal experiments were conducted in accordance with the Regulations for the Care and Use of Laboratory Animals (311/1997, Ministry of Agriculture, Czech Republic), which follows the Declaration of Helsinki. Male Wistar rats (~125–150 g; AnLab, Czech Republic), male C57BL/6 mice ([…]; CXR Bioscience Ltd., Dundee, UK), and male New Zealand rabbits (2.5–3 kg; AnLab, Czech Republic) were employed as animal models. Animals were placed in cages in temperature- and humidity-controlled rooms, acclimatized for five days and maintained at 22 °C with a 12 h light/dark period. Standardized diet and water were provided ad libitum. Rats, mice and rabbits used to prepare microsomal fraction from untreated animals were sacrificed by cervical dislocation, livers snap-frozen in liquid nitrogen and stored at −80 °C until further processing (see below). […] Protein concentrations in the microsomal fractions were assessed using the bicinchoninic acid protein assay with bovine serum albumin as a standard. […]

human liver microsomes = assay: Vandetanib metabolite formation by hepatic microsomes of 12 human donors
Procedure: Vandetanib was from LC Laboratories (Woburn, MA, USA). Ketoconazole, NADPH, methimazol and other chemicals were all purchased from Sigma-Aldrich (St. Louis, MO, USA). The purity of all chemicals met the standards of American Chemical Society, unless noted otherwise. All animal experiments were conducted in accordance with the Regulations for the Care and Use of Laboratory Animals (311/1997, Ministry of Agriculture, Czech Republic), which follows the Declaration of Helsinki. Male Wistar rats (~125–150 g; AnLab, Czech Republic), male C57BL/6 mice ([…]; CXR Bioscience Ltd., Dundee, UK), and male New Zealand rabbits (2.5–3 kg; AnLab, Czech Republic) were employed as animal models. Animals were placed in cages in temperature- and humidity-controlled rooms, acclimatized for five days and maintained at 22 °C with a 12 h light/dark period. Standardized diet and water were provided ad libitum. Rats, mice and rabbits used to prepare microsomal fraction from untreated animals were sacrificed by cervical dislocation, livers snap-frozen in liquid nitrogen and stored at −80 °C until further processing (see below). For controls, livers of the animals were removed immediately after sacrifice, divided into small pieces (~1 g), snap-frozen in liquid nitrogen, and stored at −80 °C until isolation of microsomal fractions. Pooled microsomes were used for all in vitro experiments in the present study and prepared from 10 livers/group for all animal species following established protocols. Microsomal fractions were stored at −80 °C until analysis. Protein concentrations in the microsomal fractions were assessed using the bicinchoninic acid protein assay with bovine serum albumin as a standard. Male human hepatic microsomes (pooled sample) (sample LOT: 3043885) were from Gentest Corp. (Woburn, MA, USA). Microsomes from livers of twelve human donors were obtained from Gentest Corp. (Woburn, MA, USA) (cat. no. HG43–1, HG103, HG74, HG93, HG24, HG27, HG23, HG32, HK31, HK34, HG03, and HG42). Each human microsomal sample has been characterized for CYP, FMO and protein contents and specific CYP activities by Gentest Corp. We reanalyzed each microsomal preparation for specific CYP, NADPH:CYP reductase (POR) and FMO activities by assays described in the protocols of Gentest Corp. Our data were similar to those reported by Gentest Corp. in their specification sheets. The content of CYP, specific CYP and FMO activities in each human hepatic microsomes [phenacetin-O-deethylation (CYP1A2), coumarin-7-hydroxylation (CYP2A6), (S)-mephenytoin-N-demethylase (CYP2B6), paclitaxel-6α-hydroxylation (CYP2C8), diclofenac-4’-hydroxylation (CYP2C9), (S)-mephenytoin-4′-hydroxylation (CYP2C19), bufuralol-1’-hydroxylation (CYP2D6), chlorzoxazone-6-hydroxylation (CYP2E1), testosterone-6β-hydroxylation (CYP3A4), lauric acid-12-hydroxylation (CYP4A), methyl-p-tolyl sulfide oxidase (FMO)] are shown in Table 2. Human recombinant enzymes were used in the forms of Supersomes™ and obtained from Gentest Corp. In Supersomes™ microsomal fractions were isolated from insect cells that are transfected with baculovirus constructs containing cDNA of human CYP enzymes (CYP1A1/2, 1B1, 2A6, 2B6, 2C8/9/18/19/, 2D6, 2E1, 3A4). These Supersomes™ also express NADPH:CYP oxidoreductase (POR). However, because they are microsomes (particles of broken endoplasmic reticulum), other enzymes (proteins) of the endoplasmic reticulum membrane (like NADH:cytochrome b5 reductase and cytochrome b5) are also expressed at basal levels in these Supersomes™. We also utilized Supersomes™ which over-expressed cytochrome b5, in a molar ratio of CYP to cytochrome b5 of 1 to 5. In Supersomes™ where cytochrome b5 was not over-expressed (see above) pure cytochrome b5 was added to reach a molar ratio of CYP to cytochrome b5 of 1 to 5. Reconstitution of Supersomes™ with purified cytochrome b5 was performed as described previously. […]

[1] = without consideration of cytochrome b5

T1 sequence (P10635 whole entry): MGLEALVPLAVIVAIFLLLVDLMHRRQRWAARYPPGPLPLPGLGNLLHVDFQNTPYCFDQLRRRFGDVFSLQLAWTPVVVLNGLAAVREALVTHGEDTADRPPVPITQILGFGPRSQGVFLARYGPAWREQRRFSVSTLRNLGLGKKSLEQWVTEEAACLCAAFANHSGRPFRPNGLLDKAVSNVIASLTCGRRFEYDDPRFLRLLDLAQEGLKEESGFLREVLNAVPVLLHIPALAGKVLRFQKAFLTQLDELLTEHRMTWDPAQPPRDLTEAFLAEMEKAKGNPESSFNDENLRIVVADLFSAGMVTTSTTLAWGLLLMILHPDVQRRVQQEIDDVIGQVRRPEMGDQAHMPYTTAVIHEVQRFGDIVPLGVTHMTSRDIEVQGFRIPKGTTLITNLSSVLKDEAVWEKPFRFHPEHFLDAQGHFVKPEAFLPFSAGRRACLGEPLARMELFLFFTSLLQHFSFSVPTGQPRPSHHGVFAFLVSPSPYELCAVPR

- contribution in total of other human CYPs (CYP2D6, 3A5, 1A1 and 2C8) to N-desmethylvandetanib formation (CYP2D6, 3A5, 1A1 and 2C8): ~ 0.4%
- effect of cytochrome b5 on N-desmethylvandetanib formation (human recombinant CYP2D6; CYP2D6 with vs without cytochrome b5): essentially no such effect
- contribution of CYP2D6 to N-desmethylvandetanib formation in human liver (human recombinant CYP2D6; [1]): ~ 1.7%
- fold increase of N-desmethylvandetanib formation by cytochrome b5 (human recombinant CYP2C8; CYP2C8 with vs without cytochrome b5): 1.6 fold
- contribution of CYP2C8 to N-desmethylvandetanib formation in human liver (human recombinant CYP2C8; [1]): < 0.3%
- N-desmethylvandetanib (M1) formed (human liver microsomes; human hepatic microsomal sample HG03): 3.639 peak area/(mg protein × min)
- N-desmethylvandetanib (M1) formed (human liver microsomes; human hepatic microsomal sample HG24): 1.698 peak area/(mg protein × min)
- N-desmethylvandetanib (M1) formed (human liver microsomes; human hepatic microsomal sample HG32): 0.870 peak area/(mg protein × min)
- N-desmethylvandetanib (M1) formed (human liver microsomes; human hepatic microsomal sample HG42): 8.887 peak area/(mg protein × min)
- N-desmethylvandetanib (M1) formed (human liver microsomes; human hepatic microsomal sample HG43): 1.830 peak area/(mg protein × min)
- N-desmethylvandetanib (M1) formed (human liver microsomes; human hepatic microsomal sample HG74): 0.714 peak area/(mg protein × min)
- N-desmethylvandetanib (M1) formed (human liver microsomes; human hepatic microsomal sample HG93): 0.966 peak area/(mg protein × min)
- N-desmethylvandetanib (M1) formed (human liver microsomes; human hepatic microsomal sample HG103): 1.021 peak area/(mg protein × min)
- N-desmethylvandetanib (M1) formed (human liver microsomes; human hepatic microsomal sample HK31): 4.124 peak area/(mg protein × min)
- N-desmethylvandetanib (M1) formed (human liver microsomes; human hepatic microsomal sample HK34): 3.193 peak area/(mg protein × min)
Compound: COc1cc2c(Nc3ccc(Br)cc3F)ncnc2cc1OCC1CCNCC1 [N-desmethylvandetanib]
